Measured values from patent US5985900A, “Metalloproteinase inhibitors, pharmaceutical compositions containing them and their pharmaceutical uses” (Agouron Pharmaceuticals, Inc., priority 1998, dated 1999).
Read-outs that look alike come from different tables or passages of the source.

Legend:
Format in all cases: biochemical
[1] = molecular target: T1, human collagenase-3 (Coll3) (Homo sapiens, UniProt P45452); assay: In vitro MMP inhibition assay (hydrolysis of fluorogenic MCA peptide substrate), collagenase-3; details: Table 1; Ki,app; MCA peptide substrate 10 μM, 37° C., pH 7.5, 2% DMSO
T1 construct: catalytic domain liberated with APMA
Protocol: The propeptide and catalytic domain of human collagenase-3 (Coll3) was expressed in E. coli as an N-terminal fusion protein with ubiquitin. After purification of the fusion from inclusion bodies, the catalytic domain was liberated by treatment with 2 mM APMA at room temperature overnight. Final purification was completed using copper chelate chromatography.
(§1) Assays were performed in assay buffer (50 mM Tricine pH 7.5, 200 mM sodium chloride, 10 mM calcium chloride, 0.5 mM zinc acetate containing 2% dimethyl sulfoxide (DMSO)) once the substrate and inhibitor were diluted into it. Stock solutions of inhibitors were prepared in 100% DMSO. Stock solutions of the substrate were prepared in 100% DMSO at a concentration of 6 mM.
(§2) The assay method was based on the hydrolysis of MCA-Pro-Leu-Gly-Leu-DPA-Ala-Arg-NH2 (American Peptide Co.) at 37° C. (see Knight, C. G. et al., FEBS, 1992, 296, 263-266). The fluorescence changes were monitored with a Perkin-Elmer LS-50B fluorimeter using an excitation wavelength of 328 nm and an emission wavelength of 393 nm. The substrate concentration used in the assays was 10 μM. The inhibitor was diluted into the assays from a solution in 100% DMSO, and controls substituted an equal volume of DMSO so that the final DMSO concentration from inhibitor and substrate dilution in all assays was 2%. […] Proper determination of steady-state rates of substrate cleavage required assay lengths of 60 minutes to allow for complete equilibration of the enzyme-inhibitor complex.
(§3) The Km for the MCA peptide substrate with the matrix metalloproteinases is quite high and exceeds its solubility under assay conditions. Consequently, the apparent Ki (Ki,app) was determined to describe the strength of inhibition. However, in this case, Ki,app would be essentially equal to Ki since [S]<<Km. For the determination of Ki,app, the concentration of the inhibitor was varied at a constant and low concentration of substrate and the steady-state rates of fluorescence change determined. In most cases absorptive quench due to the presence of ligand was not observed. For slow-binding inhibitors, onset of inhibition curves were collected for at least 45 minutes so that equilibrium was established. Steady-state rates of fluorescence change were obtained by fitting a curve to an equation for a single exponential decay containing a linear phase. The fitted value of the linear phase was taken as the steady-state rate. The steady-state rates were fitted to the Michaelis equation describing competitive inhibition by non-linear methods. Data resulting from tight-binding inhibition was analyzed, and Ki,app determined by fitting the data to the tight-binding equation of Morrison (Biochem. Biophys. Acta, vol. 185, pp. 269-286 (1969)) by non-linear methods.
(§4) All Ki values are in nM units.

human stromelysin (Sln) = human stromelysin (Sln) (Homo sapiens, UniProt P08254); assay: In vitro MMP inhibition assay (hydrolysis of fluorogenic MCA peptide substrate), stromelysin
[2] = molecular target: T2, human collagenase-1 (HFC) (Homo sapiens, UniProt P03956); assay: In vitro MMP inhibition assay (hydrolysis of fluorogenic MCA peptide substrate), fibroblast collagenase-1; details: Table 1; Ki,app; MCA peptide substrate 10 μM, 37° C., pH 7.5, 2% DMSO
T2 sequence (P03956 100-269 limits assumed): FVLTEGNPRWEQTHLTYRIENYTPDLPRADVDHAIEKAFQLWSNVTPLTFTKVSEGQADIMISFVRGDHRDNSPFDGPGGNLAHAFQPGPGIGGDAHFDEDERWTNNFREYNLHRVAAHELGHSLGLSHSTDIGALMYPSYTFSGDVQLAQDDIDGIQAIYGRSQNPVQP
Protocol: The catalytic domain of human collagenase-1 was expressed as a fusion protein with ubiquitin in E. coli (see Gehring, E. R., J Biol. Chem., 1995, 270, 22507). After purification of the fusion protein, the fibroblast collagenase-1 catalytic domain (HFC) was released either by treatment with purified, active stromelysin-1 (1:50 wlw ratio), which generated nearly 100% N-terminal Phe1, or by autoprocessing the concentrated collagenase-1 fusion and then incubating at 37° C. for 1 hour. Final purification was completed using zinc chelate chromatography.
as §1, §2, §3, §4

[3] = molecular target: human progelatinase A (GelA) (Homo sapiens, UniProt P08253); assay: In vitro MMP inhibition assay (hydrolysis of fluorogenic MCA peptide substrate), gelatinase A
Human matrilysin (Matr) = molecular target: T3, Human matrilysin (Matr) (Homo sapiens, UniProt P09237); assay: In vitro MMP inhibition assay (hydrolysis of fluorogenic MCA peptide substrate), matrilysin; details: Table 1; Ki,app; MCA peptide substrate 10 μM, 37° C., pH 7.5, 2% DMSO; read-out: Matri Ki
T3 construct: catalytic domain liberated with APMA
T3 sequence (P09237 95-267): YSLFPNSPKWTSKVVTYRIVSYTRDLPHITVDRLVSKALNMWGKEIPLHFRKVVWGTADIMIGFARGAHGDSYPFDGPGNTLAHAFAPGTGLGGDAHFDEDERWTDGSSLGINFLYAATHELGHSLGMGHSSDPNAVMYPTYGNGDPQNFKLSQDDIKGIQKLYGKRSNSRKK
Protocol: Human matrilysin (Matr) was expressed in E. coli as a fusion protein with ubiquitin. After purification of the matrilysin/ubiquitin fusion from inclusion bodies, the catalytic domain was liberated by treatment with 2 mM APMA at 37° C. for 2 hours. Final purification was complete using copper chelate chromatography.
as §1, §2, §3, §4

[4] = Table 1, Ki,app, MCA peptide substrate 10 μM, 37° C., pH 7.5, 2% DMSO, read-out: Sin Ki
[5] = Table 1, Ki,app, MCA peptide substrate 10 μM, 37° C., pH 7.5, 2% DMSO, read-out: Gel A

human progelatinase A (GelA), sequence (P08253 110-446 limits assumed): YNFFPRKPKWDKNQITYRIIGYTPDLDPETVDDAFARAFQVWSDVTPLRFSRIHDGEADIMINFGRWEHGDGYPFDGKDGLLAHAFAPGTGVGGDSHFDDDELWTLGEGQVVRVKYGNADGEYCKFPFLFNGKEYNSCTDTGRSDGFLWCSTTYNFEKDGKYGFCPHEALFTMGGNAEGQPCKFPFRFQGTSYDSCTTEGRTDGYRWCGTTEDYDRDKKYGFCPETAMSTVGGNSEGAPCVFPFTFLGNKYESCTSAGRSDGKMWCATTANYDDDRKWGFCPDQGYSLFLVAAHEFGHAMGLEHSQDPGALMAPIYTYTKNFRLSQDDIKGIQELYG
human stromelysin (Sln), sequence (P08254 100-272 limits assumed): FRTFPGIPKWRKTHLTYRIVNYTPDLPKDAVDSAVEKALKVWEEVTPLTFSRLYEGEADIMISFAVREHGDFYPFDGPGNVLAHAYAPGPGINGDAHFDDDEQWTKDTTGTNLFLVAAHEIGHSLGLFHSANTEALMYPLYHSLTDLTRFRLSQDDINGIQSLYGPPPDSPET

Ki [1] [nM]	Ki (human stromelysin (Sln); [4]) [nM]	Ki [2] [nM]	Ki [3, 5] [nM]	Ki (Human matrilysin (Matr)) [nM]	Ki (human stromelysin (Sln); Table 2, comparative example, read-out: STROMELYSIN Ki) [nM]	Ki ([3]; Table 2, comparative example, gelatinase A, read-out: GELATINASE Kj) [nM]	SMILES
4.6	71	960	5.1	2270	–	–	CC(C)(C)[C@H](NS(=O)(=O)c1ccc(Oc2ccccn2)cc1)C(=O)NO [Example 10c]
0.034	1	21	0.09	93	1	0.09	CC(C)(C)C(NS(=O)(=O)c1ccc(Oc2ccc(Cl)cc2)cc1)C(=O)NO (stereo in doubt) [Example 9m, 2(S)--N-hydroxy-3,3-dimethyl-2-[(4-(4-chlorophenoxy)benzenesulfonyl)amino]butanamide]
0.042	1.5	30	0.065	115	–	–	CSC(C)(C)[C@@H](NS(=O)(=O)c1ccc(Oc2ccc(Cl)cc2)cc1)C(=O)NO [Example 9b, 2(S)--N-hydroxy-3-methyl-3-methylsulfanyl-2-[(4-(4-chlorophenoxy)benzenesulfonyl)amino]butanamide]
178	1500	34000	7	75000	–	–	CC(C)(SCc1ccccn1)[C@@H](NS(=O)(=O)c1ccc(Oc2ccc(Br)cc2)cc1)C(=O)O [Example 3d, N-[4-(4-Bromophenoxy)benzenesulfonyl]--S--[(pyrid-2-yl)methyl]-D-penicillamine]
0.16	1.4	33	0.038	26	–	–	CC(C)(SCc1ccccc1)[C@@H](NS(=O)(=O)c1ccc(Oc2ccccc2)cc1)C(=O)NO [Example 9i, 2(S)--N-hydroxy-3-methyl-3-benzylsulfanyl-2-[(4-phenoxybenzenesulfonyl)amino]butanamide]
0.059	1.8	30	0.109	120	–	–	CC(C)(C)C(NS(=O)(=O)c1ccc(Oc2ccc(F)cc2)cc1)C(=O)NO (stereo in doubt) [Example 9l, 2(S)--N-hydroxy-3,3-dimethyl-2-[(4-(4-fluorophenoxy)benzenesulfonyl)-amino]butanamide]
